Source: ChEMBL document CHEMBL4393657, “Tetrazole hybrids and their antifungal activities” (2019)
In brackets after ≈: the same amount, converted by molar mass.

What was measured:
Type in all cases: functional
[1] = system: Candida albicans; assay: Antifungal activity against Candida albicans assessed as reduction in fungal cell growth incubated for 48 hrs by broth microdilution susceptibility method
[2] = system: Candida albicans; assay: Antifungal activity against Candida albicans assessed as reduction in fungal cell growth incubated for 24 and 72 hrs by cup plate method
[3] = system: Aspergillus flavus; assay: Antifungal activity against Aspergillus flavus assessed as reduction in fungal cell growth incubated for 24 and 72 hrs by cup plate method
[4] = system: Fusarium oxysporum; assay: Antifungal activity against Fusarium oxysporum assessed as reduction in fungal cell growth incubated for 24 and 72 hrs by cup plate method

Compound | MIC [1] | MIC [2] | MIC [3] | MIC [4]
O=C1/C(=C/c2ccccc2)C(=O)N(c2ccc(Cl)cc2)C(=S)N1/N=C/c1cc2ccccc2n2nnnc12 | ≥ 100 µg/mL |  |  | 
Cc1ccc(N2C(=O)/C(=C\c3ccccc3)C(=O)N(/N=C/c3cc4ccccc4n4nnnc34)C2=S)cc1 | ≥ 100 µg/mL |  |  | 
Cc1ccc2cc(/C=C/C(=O)c3cc(Br)ccc3O)c3nnnn3c2c1 |  | 25 to 100 µg/mL (≈ 61.1 to 244 µM) | 25 to 100 µg/mL (≈ 61.1 to 244 µM) | 25 to 100 µg/mL (≈ 61.1 to 244 µM)
CCOC(=O)C(C#N)C(c1cc2c(C)cccc2n2nnnc12)P(=O)(OCC)OCC (centres undefined) |  | 10 to 25 µg/mL (≈ 22.5 to 56.1 µM) | 10 to 25 µg/mL (≈ 22.5 to 56.1 µM) | 10 to 25 µg/mL (≈ 22.5 to 56.1 µM)
CCOC(=O)C(C#N)C(c1cc2cc(C)ccc2n2nnnc12)P(=O)(OCC)OCC (centres undefined) |  | 10 to 25 µg/mL (≈ 22.5 to 56.1 µM) | 10 to 25 µg/mL (≈ 22.5 to 56.1 µM) | 10 to 25 µg/mL (≈ 22.5 to 56.1 µM)
CCOC(=O)C(C#N)C(c1cc2ccc(OC)cc2n2nnnc12)P(=O)(OCC)OCC (centres undefined) |  | 10 to 25 µg/mL (≈ 21.7 to 54.2 µM) | 10 to 25 µg/mL (≈ 21.7 to 54.2 µM) | 10 to 25 µg/mL (≈ 21.7 to 54.2 µM)
O=C1CC(=O)N(c2ccccc2)C(=S)N1/N=C/c1cc2ccccc2n2nnnc12 | ≥ 100 µg/mL |  |  | 
S=C1N=C(c2ccc(Br)cc2)CC(c2cc3ccccc3n3nnnc23)N1 (centres undefined) | ≥ 100 µg/mL |  |  | 
CCOC(=O)C(C#N)C(c1cc2c(OCC)cccc2n2nnnc12)P(=O)(OCC)OCC (centres undefined) |  | 10 to 25 µg/mL (≈ 21 to 52.6 µM) | 10 to 25 µg/mL (≈ 21 to 52.6 µM) | 10 to 25 µg/mL (≈ 21 to 52.6 µM)
Oc1ccc(Br)cc1C1=NNC(c2cc3ccccc3n3nnnc23)C1 (centres undefined) |  | 25 to 100 µg/mL (≈ 61.1 to 244 µM) | 25 to 100 µg/mL (≈ 61.1 to 244 µM) | 25 to 100 µg/mL (≈ 61.1 to 244 µM)
COc1ccc2cc(C3CC(c4cc(Br)ccc4O)=NN3)c3nnnn3c2c1 (centres undefined) |  | 25 to 100 µg/mL (≈ 56.9 to 228 µM) | 25 to 100 µg/mL (≈ 56.9 to 228 µM) | 25 to 100 µg/mL (≈ 56.9 to 228 µM)
CCOC(=O)C(C#N)C(c1cc2ccc(CC)cc2n2nnnc12)P(=O)(OCC)OCC (centres undefined) |  | 10 to 25 µg/mL (≈ 21.8 to 54.4 µM) | 10 to 25 µg/mL (≈ 21.8 to 54.4 µM) | 10 to 25 µg/mL (≈ 21.8 to 54.4 µM)
CCOC(=O)C(C#N)C(c1cc2ccccc2n2nnnc12)P(=O)(OCC)OCC (centres undefined) |  | 10 to 25 µg/mL (≈ 23.2 to 58 µM) | 10 to 25 µg/mL (≈ 23.2 to 58 µM) | 10 to 25 µg/mL (≈ 23.2 to 58 µM)
Cc1ccc2cc(/C=C3\SC(=S)N(CC(=O)O)C3=O)c3nnnn3c2c1 |  | 25 to 50 µg/mL (≈ 64.9 to 130 µM) | 25 to 50 µg/mL (≈ 64.9 to 130 µM) | 25 to 50 µg/mL (≈ 64.9 to 130 µM)
CCOC(=O)C(C#N)C(c1cc2c(OC)cccc2n2nnnc12)P(=O)(OCC)OCC (centres undefined) |  | 10 µg/mL (≈ 21.7 µM) | 10 µg/mL (≈ 21.7 µM) | 10 to 25 µg/mL (≈ 21.7 to 54.2 µM)
COc1ccc2cc(C3CC(c4cc(Br)ccc4O)=NO3)c3nnnn3c2c1 (centres undefined) |  | 25 µg/mL (≈ 56.8 µM) | 25 µg/mL (≈ 56.8 µM) | 25 to 100 µg/mL (≈ 56.8 to 227 µM)
COc1ccc2c(c1)cc(C1CC(c3cc(Br)ccc3O)=NN1)c1nnnn12 (centres undefined) |  | 25 to 100 µg/mL (≈ 56.9 to 228 µM) | 25 to 100 µg/mL (≈ 56.9 to 228 µM) | 25 to 100 µg/mL (≈ 56.9 to 228 µM)
COc1cccc2c1cc(/C=C/C(=O)c1cc(Br)ccc1O)c1nnnn12 |  | 25 to 100 µg/mL (≈ 58.8 to 235 µM) | 25 to 100 µg/mL (≈ 58.8 to 235 µM) | 25 to 100 µg/mL (≈ 58.8 to 235 µM)
CCOC(=O)C(C#N)C(c1cc2cc(OC)ccc2n2nnnc12)P(=O)(OCC)OCC (centres undefined) |  | 10 to 25 µg/mL (≈ 21.7 to 54.2 µM) | 10 to 25 µg/mL (≈ 21.7 to 54.2 µM) | 10 to 25 µg/mL (≈ 21.7 to 54.2 µM)
Cc1cccc2c1cc(/C=C/C(=O)c1cc(Br)ccc1O)c1nnnn12 |  | 25 to 100 µg/mL (≈ 61.1 to 244 µM) | 25 to 100 µg/mL (≈ 61.1 to 244 µM) | 25 to 100 µg/mL (≈ 61.1 to 244 µM)
COc1ccc2cc(/C=C/C(=O)c3cc(Br)ccc3O)c3nnnn3c2c1 |  | 25 to 100 µg/mL (≈ 58.8 to 235 µM) | 25 to 100 µg/mL (≈ 58.8 to 235 µM) | 25 to 100 µg/mL (≈ 58.8 to 235 µM)
Cc1cccc2c1cc(C1CC(c3cc(Br)ccc3O)=NN1)c1nnnn12 (centres undefined) |  | 25 to 100 µg/mL (≈ 59.1 to 236 µM) | 25 to 100 µg/mL (≈ 59.1 to 236 µM) | 25 to 100 µg/mL (≈ 59.1 to 236 µM)
O=C(/C=C/c1cc2ccccc2n2nnnc12)c1cc(Br)ccc1O |  | 25 to 100 µg/mL (≈ 63.3 to 253 µM) | 25 to 100 µg/mL (≈ 63.3 to 253 µM) | 25 to 100 µg/mL (≈ 63.3 to 253 µM)
Cc1ccc2cc(C3CC(c4cc(Br)ccc4O)=NN3)c3nnnn3c2c1 (centres undefined) |  | 25 to 100 µg/mL (≈ 59.1 to 236 µM) | 25 to 100 µg/mL (≈ 59.1 to 236 µM) | 25 to 100 µg/mL (≈ 59.1 to 236 µM)
